The text below walks through data of PMC12748989 (Nature Communications, 2025).

One test has as its system PBMC. The settings on record: 12.5 µM.

For `CC[C@H](C)[C@H](N)C(=O)N[C@@H](CC(N)=O)C(=O)N[C@@H](CC(C)C)C(=O)N[C@@H](CCCCN)C(=O)N[C@@H](C)C(=O)N[C@@H](CC(C)C)C(=O)N[C@@H](C)C(=O)N[C@@H](C)C(=O)N[C@@H](CC(C)C)C(=O)N[C@@H](C)C(=O)N[C@@H](CCCCN)C(=O)N[C@H](C(=O)N[C@H](C(=O)N[C@@H](CC(C)C)C(N)=O)[C@@H](C)CC)[C@@H](C)O` [T12], the “Average (percentage cell inhibition), Mastoparan PBMC” value in the test on PBMC is on record as 10.5164%. Further, the “Average (percentage cell inhibition), Dmastoparan MDA-MB231 12.5uM” value with MDA-MB-231 cells was 27.1643%.

Consider `CC[C@H](C)[C@H](N)C(=O)N[C@@H](CC(N)=O)C(=O)N[C@@H](CC(C)C)C(=O)N[C@@H](CCCCN)C(=O)N[C@@H](C)C(=O)N[C@@H](CC(C)C)C(=O)N[C@@H](C)C(=O)N[C@@H](C)C(=O)N[C@@H](CC(C)C)C(=O)N[C@@H](C)C(=O)N[C@@H](CCCCN)C(=O)N[C@@H](CCCCN)C(=O)N[C@H](C(=O)N[C@@H](CC(C)C)C(N)=O)[C@@H](C)O` [T13], for which, in the test on PBMC, the “Average (percentage cell inhibition), Mastoparan PBMC” value was determined as 3.307%. Further, the “Average (percentage cell inhibition), Dmastoparan MDA-MB231 12.5uM” value with MDA-MB-231 cells came to 38.2444%.

Regarding `CC[C@H](C)[C@H](N)C(=O)N[C@@H](CC(N)=O)C(=O)N[C@@H](CC(C)C)C(=O)N[C@@H](CCCCN)C(=O)N[C@@H](C)C(=O)N[C@@H](CC(C)C)C(=O)N[C@@H](C)C(=O)N[C@@H](C)C(=O)N[C@@H](CC(C)C)C(=O)N[C@@H](C)C(=O)N[C@@H](CCCCN)C(=O)N[C@@H](CCCCN)C(=O)N[C@H](C(=O)N[C@H](C(N)=O)[C@@H](C)O)[C@@H](C)CC` [T14], in the test on PBMC, the “Average (percentage cell inhibition), Mastoparan PBMC” value worked out at 6.663%. In addition, the “Average (percentage cell inhibition), Dmastoparan MDA-MB231 12.5uM” value in the test with MDA-MB-231 cells is 36.2451%.

Turning to `CC[C@H](C)[C@H](NC(=O)[C@H](CCCCN)NC(=O)[C@H](CCCCN)NC(=O)[C@H](C)NC(=O)[C@H](CC(C)C)NC(=O)[C@H](C)NC(=O)[C@H](C)NC(=O)[C@H](CC(C)C)NC(=O)[C@H](C)NC(=O)[C@H](CCCCN)NC(=O)[C@H](CC(C)C)NC(=O)[C@H](CC(N)=O)NC(=O)[C@@H](N)C(C)C)C(=O)N[C@@H](CC(C)C)C(N)=O` [V1], the “Average (percentage cell inhibition), Mastoparan PBMC” value in the test on PBMC worked out at 10.9012%. The “Average (percentage cell inhibition), Dmastoparan MDA-MB231 12.5uM” value in the test on MDA-MB-231 cells is 28.5856%.

Turning to `CC[C@H](C)[C@H](N)C(=O)N[C@H](C(=O)N[C@@H](CC(C)C)C(=O)N[C@@H](CCCCN)C(=O)N[C@@H](C)C(=O)N[C@@H](CC(C)C)C(=O)N[C@@H](C)C(=O)N[C@@H](C)C(=O)N[C@@H](CC(C)C)C(=O)N[C@@H](C)C(=O)N[C@@H](CCCCN)C(=O)N[C@@H](CCCCN)C(=O)N[C@H](C(=O)N[C@@H](CC(C)C)C(N)=O)[C@@H](C)CC)C(C)C` [V2], the “Average (percentage cell inhibition), Mastoparan PBMC” value with PBMC came out at 65.6691%. Moreover, in the test with MDA-MB-231 cells, the “Average (percentage cell inhibition), Dmastoparan MDA-MB231 12.5uM” value amounted to 91.4206%.

Regarding `CC[C@H](C)[C@H](N)C(=O)N[C@@H](CC(N)=O)C(=O)N[C@H](C(=O)N[C@@H](CCCCN)C(=O)N[C@@H](C)C(=O)N[C@@H](CC(C)C)C(=O)N[C@@H](C)C(=O)N[C@@H](C)C(=O)N[C@@H](CC(C)C)C(=O)N[C@@H](C)C(=O)N[C@@H](CCCCN)C(=O)N[C@@H](CCCCN)C(=O)N[C@H](C(=O)N[C@@H](CC(C)C)C(N)=O)[C@@H](C)CC)C(C)C` [V3], in the test on PBMC, the “Average (percentage cell inhibition), Mastoparan PBMC” value is on record as -4.825%. Moreover, the “Average (percentage cell inhibition), Dmastoparan MDA-MB231 12.5uM” value in the test with MDA-MB-231 cells is 35.8976%.

On to `CC[C@H](C)[C@H](N)C(=O)N[C@@H](CC(N)=O)C(=O)N[C@@H](CC(C)C)C(=O)N[C@H](C(=O)N[C@@H](C)C(=O)N[C@@H](CC(C)C)C(=O)N[C@@H](C)C(=O)N[C@@H](C)C(=O)N[C@@H](CC(C)C)C(=O)N[C@@H](C)C(=O)N[C@@H](CCCCN)C(=O)N[C@@H](CCCCN)C(=O)N[C@H](C(=O)N[C@@H](CC(C)C)C(N)=O)[C@@H](C)CC)C(C)C` [V4], for which the “Average (percentage cell inhibition), Mastoparan PBMC” value in the test with PBMC was 3.317%. Further, the “Average (percentage cell inhibition), Dmastoparan MDA-MB231 12.5uM” value in the test with MDA-MB-231 cells was 32.9047%.
